From publication PMC5442318, “Hundreds of dual-stage antimalarial molecules discovered by a functional gametocyte screen” (Nature Communications, 2017)
Where two headings read alike, the source gives them in different places.

Assays:
[1] = tested on: P. falciparum stage V female gametocytes; assay: P. falciparum female gametocyte activation assay (Pf FGAA), 24 h or 48 h preincubation, Pfs25 expression readout; type: cell-based, Plasmodium falciparum NF54; parameters: key to Biological profile: 49 compounds that were only active with a 48 h exposure (designated as slow-acting); 29 compounds additionally showed activity with only 24 h exposure (designated as fast-acting); when the compounds were added 30 min after triggering gametocyte activation, 12 compounds prevented cell surface expression of Pfs25 (designated as gamete-targeting); settings: for Pf FGAA classification: SLOW / FAST / GAMETE from activity at 48h, 24h, 0h incubation
How it was run: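 Female activation, triggered by xanthurenic acid and cooling, was scored by imaging Cy3-labelled anti-Pfs25 female gametes after 24 h at 26 °C. Beforehand, purified NF54 stage V gametocytes had been incubated with compound for either 24 h or 48 h (37 °C, 3% O2). Values are pIC50 from full-curve regression.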

HepG2 cells = assay: HepG2 cytotoxicity assay; type: cell-based
How it was run: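 Cell viability is measured by CellTiter-Glo luminescence. Signal is developed at room temperature and read 10 min after adding the reagent, with plates and reagent first equilibrated for 30 min.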

[2] = tested on: P. falciparum female gametes; assay: Pf FGAA with compounds added 30 min after triggering gametocyte activation (gamete-targeting); type: cell-based, Plasmodium falciparum NF54; settings: 0h incubation time
[3] = tested on: P. falciparum stages IV–V gametocytes; assay: Gametocytocidal ATP-depletion assay (gametocyte ATP bioluminescence); type: cell-based, Plasmodium falciparum; settings: for inhibition at 2 µM: Plasmodium falciparum, mean
How it was run: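 Read-out is luciferase luminescence of parasite ATP (BacTiter-Glo), standing in for viability. Double-purified mature stage IV–V gametocytes, 12,500 per well, were exposed 48 h at 37 °C in low-O2 gas; screening concentration 2 μM.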

[4] = tested on: P. falciparum asexual blood stages; settings: cited from earlier work; for IC50: read-out: Pf Asexual blood stages XC50
[5] = 24h incubation time, read-out: Pf FGAA IC50 (µM) 24h
[6] = mean, read-out: Gametocytes mean Pf FGAA IC50
[7] = TCAMS data, ref 1 (Gamo et al., 2010)
[8] = TCAMS data, ref 1 (Gamo, F. J. et al., Nature 465, 305-310, 2010)
[9] = P. falciparum female gametocytes, mean, read-out: Gametocytes mean Pf FGAA IC50
[10] = TCAMS asexual blood stage data, ref 1 (Gamo, F. J. et al., Nature 465, 305-310, 2010)
[11] = Plasmodium falciparum, 24h incubation time, read-out: Pf FGAA IC50 (µM) 24h
[12] = Plasmodium falciparum, P. falciparum female gametocytes, mean, read-out: Gametocytes mean Pf FGAA IC50
[13] = HepG2 TOX50 versus Pf FGAA IC50

Structure (SMILES)	IC50 [1, 5]	IC50 [2]	IC50 [1, 9]	Pf FGAA classification [1]	Pf Asexual stages XC50 [4, 8]	HepG2 cells mean TOX50 (HepG2 cells; HepG2 cells; mean)	Gametocytes mean ATP inhibition at 2µM [3]	IC50 [4, 10]	other results
Cc1cccc2nc(-c3ccc(-c4ccc(CNCc5ccc(CN)cc5)cc4)cc3)[nH]c12.O=C(O)C(F)(F)F [TCMDC-132813]	0.21 µM	4.35 µM	2.16 µM	FAST	0.72 µM	18.09 µM	13.49%	0.72 µM	–
CNCCCNCc1ccc(-c2ccc(F)c(Cl)c2)o1.Cl [TCMDC-125237]	1.57 µM	> 20 µM	1.87 µM	FAST	0.75 µM	10.60 µM	-1.51%	0.75 µM	–
CCn1c(-c2nonc2N)nc2c(-c3cccc(NC(=O)Nc4ccc(Cl)cc4)c3)ncc(OCCCN)c21.O=C(O)C(F)(F)F [TCMDC-136152]	6.65 µM	> 20 µM	–	SLOW	0.83 µM	–	–	–	IC50 [1, 6]: 1.7 µM; HepG2 cells mean TOX50 (HepG2 cells; mean): 10.96 µM; Gametocytes mean ATP inhibition at 2µM (%) [3]: -4.09%; IC50 [4, 7]: 0.83 µM
CN1CCC(N2CCC(Oc3cccc(C(=O)NCCCC4CCCC4)c3)CC2)CC1 [TCMDC-124677]	–	–	–	SLOW	0.23 µM	4.90 µM	–	0.84 µM	IC50 [1, 11]: 3.87 µM; IC50 [1, 12]: 1.47 µM; Selectivity ratio (HepG2 cells; [13]): 3.34; IC50 ([2]; Plasmodium falciparum): > 20 µM; inhibition at 2 µM [3]: -0.79%
FC(F)(F)c1ccc2[nH]c(-c3ccc(-c4ccc(CNCCN5CCNCC5)cc4)cc3)nc2c1.O=C(O)C(F)(F)F [TCMDC-132865]	> 20 µM	> 20 µM	1.41 µM	SLOW	1.12 µM	16.43 µM	-10.30%	1.12 µM	–
Cc1ccc(S(=O)(=O)N(CCCNCc2cccc(O)c2)c2ccccc2)cc1 [TCMDC-138022]	–	–	–	SLOW	0.77 µM	–	–	–	IC50 [1, 11]: > 20 µM; IC50 ([1]; Plasmodium falciparum, mean, read-out: Gametocytes mean Pf FGAA IC50): 1.14 µM; Selectivity ratio (HepG2 cells; HepG2 TOX50 vs Pf FGAA IC50): 39.21; HepG2 cells mean TOX50 (HepG2 cells; mean): 44.67 µM; IC50 ([2]; Plasmodium falciparum): > 20 µM; inhibition at 2 µM [3]: 32%; IC50 [4, 7]: 0.77 µM
O=C(c1ccc([N+](=O)[O-])o1)N1CCN(c2nc3c(Cl)cccc3s2)CC1 [TCMDC-124316]	–	–	–	FAST	0.98 µM	41.96 µM	–	0.98 µM	IC50 [1, 11]: 1.38 µM; IC50 [1, 12]: 1.1 µM; Selectivity ratio (HepG2 cells; [13]): 38.14; IC50 ([2]; Plasmodium falciparum): > 20 µM; inhibition at 2 µM [3]: 0.49%
Clc1ccc(-c2csc3ncnc(Cl)c23)cc1 [TCMDC-123811]	3.25 µM	> 20 µM	1.57 µM	SLOW	0.46 µM	94.46 µM	-1.98%	0.46 µM	–
NC1CCN(CCc2ccc(NS(=O)(=O)c3ccc(-c4ccccc4)cc3)cc2)CC1 [TCMDC-134085]	–	–	–	FAST	1.02 µM	7.17 µM	–	1.02 µM	IC50 [1, 11]: 1.98 µM; IC50 [1, 12]: 0.75 µM; Selectivity ratio (HepG2 cells; [13]): 9.58; IC50 ([2]; Plasmodium falciparum): > 20 µM; inhibition at 2 µM [3]: -6.2%
Cc1cccc2nc(-c3ccc(-c4ccc(CNCCN5CCNCC5)cc4)s3)[nH]c12.O=C(O)C(F)(F)F [TCMDC-132870]	18.8 µM	> 20 µM	1.53 µM	SLOW	1.15 µM	14.29 µM	8.76%	1.15 µM	–
COc1cc2nc(-c3ccc(Br)cc3)cc(N)c2cc1OC [TCMDC-138933]	–	–	–	SLOW	0.17 µM	–	–	–	Biological profile ([1]; Pf FGAA with 48 h, 24 h or post-activation addition, active = IC50 below 2 μM): slow-acting; IC50 [1, 11]: 3.91 µM; IC50 ([1]; Plasmodium falciparum, stage V gametocytes, 48 h exposure, read-out: PfFGAA IC50): 0.76 µM; Selectivity ratio (HepG2 cells; HepG2 TOX50 vs Pf FGAA IC50): 6.53; selectivity ratio (selectivity index) (HepG2 cells; HepG2 Tox50 vs Pf FGAA IC50): < 10; HepG2 cells mean TOX50 (HepG2 cells; mean): 4.95 µM; IC50 ([2]; Plasmodium falciparum): 8.17 µM; inhibition at 2 µM [3]: 0.89%; IC50 [4, 7]: 0.17 µM
CCc1cc2c(Sc3nnc(N)s3)ncnc2s1 [TCMDC-123993]	0.77 µM	> 20 µM	0.73 µM	FAST	0.66 µM	32.30 µM	23.86%	0.66 µM	–
O=C(Nc1nc(-c2ccccn2)cs1)c1ccc(Br)s1 [TCMDC-123868]	0.14 µM	2.14 µM	1.16 µM	GAMETE	1.06 µM	37.44 µM	29.36%	1.06 µM	–
O=C(c1ccc([N+](=O)[O-])o1)N1CCN(c2nc3c(F)cc(F)cc3s2)CC1 [TCMDC-125149]	1.25 µM	> 20 µM	1.31 µM	FAST	0.97 µM	>100 µM	5.52%	0.97 µM	HepG2 cells TOX50 (HepG2 cells; HepG2 cells): >100 µM
CC(C)(C)OC(=O)NCc1ccc(Nc2nnc(-c3cccc(C(=O)NCc4cc(C(F)(F)F)cc(C(F)(F)F)c4)c3)o2)cc1 [TCMDC-135229]	2.41 µM	> 20 µM	3.14 µM	SLOW	0.87 µM	21.43 µM	-6.34%	0.87 µM	–
Cc1ccc2c(c1)c(C1CCN(C(=O)c3ccc([N+](=O)[O-])o3)CC1)cn2C [TCMDC-124787]	0.88 µM	> 20 µM	2.12 µM	FAST	0.75 µM	28.85 µM	-6.61%	0.75 µM	–

The next lines start with results.

IC50 [1, 5]	IC50 [2]	IC50 [1, 9]	Structure (SMILES)	Pf FGAA classification [1]	Pf Asexual stages XC50 [4, 8]	HepG2 cells mean TOX50 (HepG2 cells; HepG2 cells; mean)	Gametocytes mean ATP inhibition at 2µM [3]	IC50 [4, 10]	other results
1.54 µM	> 20 µM	–	CN1CCN(c2cc3c(cc2Cl)CCN3C(=O)Nc2ccc(NC(=O)c3ccc(C(F)(F)F)cc3)cc2)CC1.Cl [TCMDC-139270]	FAST	1.10 µM	–	–	–	IC50 [1, 6]: 0.69 µM; HepG2 cells mean TOX50 (HepG2 cells; mean): 3.99 µM; Gametocytes mean ATP inhibition at 2µM (%) [3]: 1.67%; IC50 [4, 7]: 0.51 µM
5.74 µM	12.3 µM	1.41 µM	CC(C)N1CCN(C(CN2CCN(CCCOc3ccccc3-c3ccccc3)CC2)c2ccc(F)cc2)CC1.Cl (stereo not shown) [TCMDC-135499]	SLOW	0.79 µM	4.32 µM	-15.92%	0.79 µM	–
–	> 20 µM	2.41 µM	CN1CCN(Cc2ccc(-c3cc4c(Nc5ccc(OCc6cccc(F)c6)c(Cl)c5)ncnc4s3)[nH]2)CC1 [TCMDC-135458]	SLOW	0.77 µM	10.98 µM	-48.07%	0.77 µM	–
4.97 µM	6.42 µM	–	CCOc1ccc2c(=NN=Cc3cc(OC)c(OC)cc3OC)cc(C)[nH]c2c1 [TCMDC-142207]	SLOW	0.17 µM	–	-8.55%	1 µM	IC50 ([1]; mean, P. falciparum female gametocyte activation assay, read-out: Gametocytes mean Pf FGAA IC50): 1.22 µM; HepG2 cells mean TOX50 (HepG2 cells; mean; HepG2 cells): 12.17 µM
2.29 µM	> 20 µM	–	Clc1nc(Cl)c2c(ccn2Cc2ccccc2)n1 [TCMDC-137801]	FAST	0.79 µM	–	–	–	IC50 [1, 6]: 1.46 µM; HepG2 cells TOX50 (HepG2 cells; HepG2 cells): >100 µM; HepG2 cells mean TOX50 (HepG2 cells; mean): >100 µM; Gametocytes mean ATP inhibition at 2µM (%) [3]: -14.95%; IC50 [4, 7]: 0.79 µM
14.2 µM	13.1 µM	–	CC(=O)Nc1ccc2[nH]cc(C3CCN(CC4CCN(C(=O)/C=C/c5ccc(Cl)c(Cl)c5)CC4)CC3)c2n1 [TCMDC-140112]	SLOW	0.16 µM	–	–	–	IC50 [1, 6]: 1.38 µM; HepG2 cells mean TOX50 (HepG2 cells; mean): 12.59 µM; Gametocytes mean ATP inhibition at 2µM (%) [3]: 8.03%; IC50 [4, 7]: 0.16 µM
